Source: patent US20060122198A1, “Antiepileptic agent” (Kyowa Hakko Kogyo Co., Ltd., priority 2003, published 2006)

Assays:
[1] = system: male mice of dd-strain; details: mouse, in vivo, po, 7 days
Experimental: A test compound was orally administered to male mice (body weight: 20±1 g) of dd-strain which comprises three mice per group. State of death after 7 days from the administration was observed and the minimum lethal dose (MLD) was determined.

[2] = system: convulsion induced by administration of reserpine and electric stimulation; assay: Antiepileptic action: tonic extended convulsion induced by reserpine and electric stimulation; assay type: in vivo; details: male ddY mice treated with reserpine 5 mg/kg i.p.; test compound 30 mg/kg orally; electric stimulation 1,000 V, 50 mA, 0.2 second after one hour; compared with reserpine + solvent group, p<0.01 (Aspine-Welch test)
Experimental: Convulsion induced by administration of reserpine and electric stimulation has been known as an effective model for epilepsy [European Journal of Pharmacology, 1994, volume 23, page 260]. Male mice (body weight: 15 to 17 g; Nippon SLC, Hamamatsu) of ddY strain of four weeks age were subjected to a preliminary breeding and 65 mice where body weight became 22.4 to 26.0 g were used for the experiment. Fifteen mice among the above were used as a non-treated group. Reserpine (Apoplon Injection 1 mg; Daiichi Seiyaku) diluted with distilled water for injection (Otsuka Seiyaku, Naruto) was intraperitoneally administered (treatment with reserpine) at the dose of 5 mg/kg to each of the remaining 50 mice and the experiment was carried out after 18 to 24 hours from the administration. Among the mice subjected to the treatment with reserpine, two groups each comprising ten mice were randomly selected and used as a group administered with a solvent and a group administered with the test compound. The test compound was used as a suspension of a 0.5% MC solution [distilled water for injection containing 0.5% methyl cellulose 400 cP (Wako Pure Chemicals)] and Compound (I) was orally administered at the dose of 30 mg/kg (10 mL/kg in terms of volume) to the mice treated with reserpine (a group administered with the test compound). […]

| Structure (SMILES) | minimum lethal dose (MLD) [1] | duration of convulsion (tonic extended convulsion) [2] |
| --- | --- | --- |
| COc1cc(/C=C/c2nc3c(c(=O)n(C)c(=O)n3C)n2C)cc(OC)c1OC [Compound 1, (E)-8-(3,4,5-Trimethoxystyryl)caffeine] | > 1,000 mg/kg | significant shortening action |
| CCCn1c(=O)c2c(nc(/C=C/c3ccc(OC)c(OC)c3)n2C)n(CCC)c1=O [Compound 3, (E)-8-(3,4-Dimethoxystyryl)-7-methyl-1,3-dipropylxanthine] | – | significant shortening action |
